Results as given in patent US20050020495A1, “Antiretroviral compositions comprising thymosin alpha peptides and protease inhibitors” (priority 2001, published 2005).
Ends that are not written are not given here.

Legend:
HIV [1] = settings: cited from earlier work
HIV [2] = assay: Randomised trial of Tα1 injections versus no injections in clinically stable HIV patients; TREC response in PBMCs, lymphocyte subsets, tolerability; assay type: in vivo, human
Procedure: Efficacy of HIV treatment is shown by evaluating TREC response in peripheral blood mononuclear cells (PBMCs) to treatment with Tα1 plus an HIV inhibitory agent.
Twenty clinically stable patients with viral loads <400 copies/ml and CD4 counts less than 200 cells/μl were randomised to receive 3.2 mg […] subcutaneous injections twice weekly or no injections for 12 weeks. CD4 and CD8 counts, CD45 RO+ and RA+ subsets and T cell re-excision circles (TREC) in peripheral blood mononuclear cells (PBMCs) were measured every four weeks, along with regular clinical assessments and routine laboratory tests.

## Thymosin α1 (SDAAVDTSSEITTKDLKEKKEVVEEAEN; not fully specified (N-terminus); ends and bridges not checked; UniProt P06454 2-29, looked up) [Tα1, 28-amino acid thymic peptide hormone with immunomodulatory properties, homologous to a natural product isolated from thymosin fraction 5 of calf thymuses]
HIV [1]; given in combination with either IL-2 or interferon-α
  CD4 counts: induced increases in CD4 counts
HIV [1]; patients taking zidovudine monotherapy, contrasted with IL-2 or INF-α
  Systemic adverse reactions: virtual absence of any significant systemic adverse reactions
HIV [2]; 3.2 mg subcutaneous twice weekly for 12 weeks
  Signs of toxicity during the trial: no patients taking the medication developed signs of toxicity
HIV [2]; 3.2 mg subcutaneous twice weekly for 12 weeks, 13 patients on Tα1
  Tolerability: well tolerated
HIV [2]; over the 12 week study period
  Changes in CD4, CD8 and CD45 lymphocyte subsets versus controls: did not differ between the groups
HIV [2]; week 12
  Mean TREC levels relative to control group: 20 times
  Patients with detectable TREC levels versus control patients: far more of the Tα1 group had detectable TREC levels than control patients
  TREC levels in PBMCs versus controls: significant increase
